Laboratory results from US9102613B2, “Method for producing sorbic anhydride and also use thereof as a preservative in foods” (LANXESS DEUTSCHLAND GMBH, priority 2010, dated 2015).

Test: preservative action in foods (e.g. fruit drinks)

Row | Compound | preservation action relative to sorbic acid or sorbate (compared with sorbic acid or sorbate, preservative for foods) | preservative action relative to potassium sorbate (compared with e.g. potassium sorbate, preservation of foods)
1 | C/C=C/C=C/C(=O)OC(=O)/C=C/C=C/C [all-E-sorbic anhydride] | approximately five times higher | 
2 | C/C=C/C=C/C(=O)OC(=O)/C=C/C=C/C [sorbic anhydride] |  | about 5 times
